Measurements: patent US6294674A, “Dibenzofuran sulfonamide matrix metalloproteinase inhibitors” (priority 1999, dated 2001)
pIC50: −log10 of the molar value.

What was measured:
[1] = molecular target: T1, MMP01 (Homo sapiens, UniProt P03956); assay: Thiopeptolide assay, MMP01; type: biochemical; settings: Tables 2, 3, 5, 7; read-out: IC50 MMP1
T1 construct: purchased Washington University School of Medicine, St. Louis, Mo
T1 sequence (P03956 100-469): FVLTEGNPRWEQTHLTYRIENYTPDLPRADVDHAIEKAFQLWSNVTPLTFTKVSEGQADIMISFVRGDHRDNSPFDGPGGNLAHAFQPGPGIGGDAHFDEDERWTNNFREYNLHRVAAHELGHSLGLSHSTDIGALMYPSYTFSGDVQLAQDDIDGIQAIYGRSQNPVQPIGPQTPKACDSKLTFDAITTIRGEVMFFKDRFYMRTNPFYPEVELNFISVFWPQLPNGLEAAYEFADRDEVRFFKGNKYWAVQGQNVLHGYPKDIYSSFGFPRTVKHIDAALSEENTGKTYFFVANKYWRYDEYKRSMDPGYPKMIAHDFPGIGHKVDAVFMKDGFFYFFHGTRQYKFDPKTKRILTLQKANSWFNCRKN
Description: (§1) MMP01, MMP07, MMP09, and MMP13 activity was assayed in a method similar to MMP02 and MMP03 (SCD and GCD). MMP01 and MMP09 can be obtained from Washington University School of Medicine, St. Louis, Mo. MMP07 can be obtained in accordance with the known procedure set forth by Ye QZ, Johnson L. L., and Baragi V., "Gene Syntheses and Expression in E. coli for PUMP, a Human Matrix Metalloproteinase" Biochem. and Biophys. […] MMP 13 can be obtained in accordance with the known procedure set forth by Freije J. M. P., et al., "Molecular Cloning and Expression of Collegenase-3, a Novel Human Matrix Metalloproteinase Produced by Breast Carcinomas" J. Bio.
(§2) Hydrolysis of the thiopeptolide substrate Ac-Pro-Leu-Gly-thioester-Leu-Leu-Gly-OEt (Bachem) is used as the primary screen to determine IC50 values for MMP inhibitors. A 100 μL reaction contains 1 mM 5,5'-dithiobis(2-nitrobenzoic acid) (DTNB), 100 μM substrate, 0.1% Brij, enzyme, and inhibitor in the appropriate reaction buffer. Activated full-length enzymes are assayed at 5 nM, Stromelysin Catalytic Domain (SCD) at 10 nM, and Gelatinase A Catalytic Domain (GaCD) at 1 nM. Inhibitors are screened from 100 μM to 1 nM. Full-length enzymes are assayed in 50 mM HEPES, 10 mM CaCl2, pH 7.0; SCD in 50 mM MES, 10 mM CaCl2, pH 6.0; and GaCD in 50 mM MOPS, 10 mM CaCl2, 10 μM ZnCl2, pH 7.0.

[2] = molecular target: gelatinase A catalytic domain (MMP02); assay: Thiopeptolide assay, gelatinase A catalytic domain (GCD, MMP02); type: biochemical; settings: Tables 2, 3, 5, 7; read-out: IC50 MMP-2CD
Description: as §2

[3] = molecular target: T2, stromelysin-1 catalytic domain (MMP03) (Homo sapiens, UniProt P08254); assay: Thiopeptolide assay, stromelysin-1 catalytic domain (SCD, MMP03); type: biochemical; settings: Tables 2, 3, 5, 7; read-out: IC50 MMP 3CD
T2 construct: SCD (stromelysin-1 catalytic domain); made in house; host or cells: Escherichia coli
Description: as §2

[4] = molecular target: T3, MMP07 (Homo sapiens, UniProt P09237); assay: Thiopeptolide assay, MMP07; type: biochemical; settings: Tables 2, 3, 5, 7; read-out: IC50 MMP-7
T3 construct: made in house; host or cells: Escherichia coli
T3 sequence (P09237 95-267): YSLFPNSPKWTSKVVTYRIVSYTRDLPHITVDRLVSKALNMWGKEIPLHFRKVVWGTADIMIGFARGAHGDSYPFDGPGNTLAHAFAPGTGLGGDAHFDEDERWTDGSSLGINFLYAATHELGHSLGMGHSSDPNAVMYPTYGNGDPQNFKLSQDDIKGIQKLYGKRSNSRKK
Description: as §1, §2

[5] = tested on: MMP-13CD; assay: Thiopeptolide assay, MMP-13CD; type: biochemical, human; settings: Tables 2, 3, 5, 7
Description: IC50 values were determined using a thiopeptolide substrate, Ac-Pro-Leu-Gly-thioester-Leu-Leu-Gly-OEt (Ye Q.-Z., Johnson L. L., Hupe D. J., and Baragi V., "Purification and Characterization of the Human Stromelysin Catalytic Domain Expressed in Escherichia coli," Biochemistry, 1992;31:11231-11235). MMP01, MMP07, MMP09, and MMP13 activity was assayed in a method similar to MMP02 and MMP03 (SCD and GCD). MMP01 and MMP09 can be obtained from Washington University School of Medicine, St. Louis, Mo. MMP07 can be obtained in accordance with the known procedure set forth by Ye QZ, Johnson L. L., and Baragi V., "Gene Syntheses and Expression in E. coli for PUMP, a Human Matrix Metalloproteinase" Biochem. and Biophys. Res. Comm., 1992; 186:143-149. MMP 13 can be obtained in accordance with the known procedure set forth by Freije J. M. P., et al., "Molecular Cloning and Expression of Collegenase-3, a Novel Human Matrix Metalloproteinase Produced by Breast Carcinomas" J. Bio. Chem., 1994;269:16766-6773.
as §2, with “7.0. The change in absorbance at 405 riM is monitored on a ThermoMax microplate reader at room temperature continuously for 20 minutes.” for “7.0.”

T2 sequence (P08254 100-272 limits assumed): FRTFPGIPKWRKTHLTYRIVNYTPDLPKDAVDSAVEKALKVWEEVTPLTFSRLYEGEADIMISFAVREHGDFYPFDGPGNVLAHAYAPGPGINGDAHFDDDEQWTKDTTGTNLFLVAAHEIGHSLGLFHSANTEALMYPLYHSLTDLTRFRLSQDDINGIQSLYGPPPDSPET

| SMILES | pIC50 [1] | pIC50 [2] | pIC50 [3] | pIC50 [4] | pIC50 [5] |
| --- | --- | --- | --- | --- | --- |
| COc1ccc(CCC(=O)NCCCCC(NS(=O)(=O)c2ccc3oc4ccccc4c3c2)C(=O)O)cc1 (stereo not drawn) [Example A17, 2-(Dibenzofuran-2-sulfonylamino)-6-[3-(4-methoxy-phenyl)-propionylamino]-hexanoic acid] | < 4.00 | 6.15 | 6.05 | 4.27 | 5.36 |
| O=C(O)C(CCCCNC(=S)NC(c1ccccc1)c1ccccc1)NS(=O)(=O)c1ccc2oc3ccccc3c2c1 (stereo not drawn) [Example B4, 6-(3-Benzhydryl-thioureido)-2-(dibenzofiuran-2-sulfonylamino)-hexanoic acid] | < 4.00 | 5.04 | 5.09 | < 4.00 | 4.69 |
| O=C(CC1=CCCC1)NCCCCC(NS(=O)(=O)c1ccc2oc3ccccc3c2c1)C(=O)O (stereo not drawn) [Example A12] | < 4.00 | 6.22 | 6.00 | 4.19 | 5.77 |
| O=C(Cc1cccs1)NCCCCC(NS(=O)(=O)c1ccc2oc3ccccc3c2c1)C(=O)O (stereo not drawn) [Example A5, 2-(Dibenzofuran-2-sulfonylamino)-6-(2-thiophen-2-yl-acetylamino)-hexanoic acid] | < 4.00 | 6.05 | 6.30 | 4.45 | 5.96 |
| O=C(O)C(CCCCNC(=S)Nc1cccnc1)NS(=O)(=O)c1ccc2oc3ccccc3c2c1 (stereo not drawn) [Example B3, 2-(Dibenzofuran-2-sulfonylamino)-6-(3-pyridin-3-yl-thioureido)-hexanoic acid] | < 4.00 | 5.68 | 5.21 | 4.03 | 4.87 |
| COc1ccc(OCC(=O)NCCCCC(NS(=O)(=O)c2ccc3oc4ccccc4c3c2)C(=O)O)cc1 (stereo not drawn) [Example A13, 2-(Dibenzofuran-2-sulfonylamino)-6-[2-(4-methoxy-phenoxy)-acetylamino]-hexanoic acid] | < 4.00 | 5.92 | 5.64 | < 4.00 | 5.14 |
| O=C(CCCc1cccs1)NCCCCC(NS(=O)(=O)c1ccc2oc3ccccc3c2c1)C(=O)O (stereo not drawn) [Example A35, 2-(Dibenzofuran-2-sulfonylamino)-6-[4-thiophen-2-yl-butyrylamino)-hexanoic acid] | < 4.00 | 5.96 | 5.77 | < 4.00 | 5.36 |
| O=C(COc1cccc2ccccc12)NCCCCC(NS(=O)(=O)c1ccc2oc3ccccc3c2c1)C(=O)O (stereo not drawn) [Example A14, 2-(Dibenzofuran-2-sulfonylamino)-6-[2-(naphthalen-1-yloxy)acetylamino]-hexanoic acid] | < 4.00 | 5.11 | 5.28 | < 4.00 | 4.37 |
| Cc1cc(OCCCC(=O)NCCCCC(NS(=O)(=O)c2ccc3oc4ccccc4c3c2)C(=O)O)ccc1Cl (stereo not drawn) [Example A16, 6-[4-(4-Chloro-3-methyl-phenoxy)-butyrylamino]-2-(dibenzofuran-2-sulfonylamino)-hexanoic acid] | < 4.00 | 5.26 | 5.19 | < 4.00 | 4.46 |

Other lines, results leading:

| pIC50 [1] | pIC50 [2] | pIC50 [3] | pIC50 [4] | pIC50 [5] | SMILES |
| --- | --- | --- | --- | --- | --- |
| < 4.00 | 5.92 | 5.07 | < 4.00 | 5.11 | CC(=O)Nc1ccc(S(=O)(=O)NCCCCC(NS(=O)(=O)c2ccc3oc4ccccc4c3c2)C(=O)O)cc1 (stereo not drawn) [Example D5, 6-(4-Acetylamino-benzensulfonylamino)-2-(dibenzofuran-2-sulfonylamino)-hexanoic acid] |
| 4.21 | 7.00 | 6.40 | 5.15 | 6.70 | CC(C)CC(C)NC(=O)CCC(NS(=O)(=O)c1ccc2oc3ccccc3c2c1)C(=O)O (stereo not drawn) [Example F8, 2-(Dibenzofuran-2-sulfonylamino)-4-(1,3-dimethyl-butylcarbamoyl)-butyric acid] |
| < 4.00 | 6.15 | 6.00 | 4.39 | 6.15 | O=C(CCC(NS(=O)(=O)c1ccc2oc3ccccc3c2c1)C(=O)O)NCC(c1ccccc1)c1ccccc1 (stereo not drawn) [Example F5, 2-(Dibenzofuran-2-sulfonylamino)-4-(2,2-diphenyl-ethylcarbamoyl)-butyric acid] |
| < 4.00 | 5.68 | 5.57 | 4.13 | 5.72 | O=C(CCC(NS(=O)(=O)c1ccc2oc3ccccc3c2c1)C(=O)O)NCc1ccccc1 (stereo not drawn) [Example F10, 4-Benzylcarbamoyl-2-(dibenzofuran-2-sulfonylamino)-butyric acid] |
| < 4.00 | 6.40 | 5.85 | 4.24 | 5.62 | Cn1cccc1CCNC(=O)CCC(NS(=O)(=O)c1ccc2oc3ccccc3c2c1)C(=O)O (stereo not drawn) [Example F14, 2-(Dibenzofuran-2-sulfonylamino)-4-[2-(1-methyl-1H-pyrrol-2-yl)-ethylcarbamoyl]-butyric acid] |
| < 4.00 | 5.37 | 4.85 | < 4.00 | 4.93 | O=C(O)C(CCCCNS(=O)(=O)c1cccc2ccccc12)NS(=O)(=O)c1ccc2oc3ccccc3c2c1 (stereo not drawn) [Example D9, 2-(Dibenzofuran-2-sulfonylamino)-6-(naphthalene-1-sulfonylamino)-hexanoic acid] |
| < 4.00 | 6.40 | 5.96 | 4.66 | 6.00 | O=C(CCC(NS(=O)(=O)c1ccc2oc3ccccc3c2c1)C(=O)O)NCc1cccc2ccccc12 (stereo not drawn) [Example F16] |
| < 4.00 | 5.68 | 5.57 | < 4.00 | 5.44 | O=C(CCC(NS(=O)(=O)c1ccc2oc3ccccc3c2c1)C(=O)O)NCCc1cccs1 (stereo not drawn) [Example F11, 2-(Dibenzofuran-2-sulfonylamino)-4-(2-thiophen-2-yl-ethylcarbamoyl)-butyricacid] |
| < 4.00 | 5.03 | 4.58 | < 4.00 | 4.62 | O=C(CCC(NS(=O)(=O)c1ccc2oc3ccccc3c2c1)C(=O)O)NCCCCc1ccccc1 (stereo not drawn) [Example F13, 2-(Dibenzofuran-2-sulfonylamino)-4-(4-phenyl-butylcarbamoyl)-butyric acid] |
